Here are results for 23 compounds from patent publication US20260062422A1 (Halda Therapeutics OpCo, Inc., priority 2022, published 2026).

Assay [1] concerns VCaP cells. As to the kind of experiment: Cellular growth inhibition assay for VCaP cells, CellTiter-Glo. It is filed as cell-based, human. To be noted: 72 hours treatment, CellTiter-Glo 2.0. In short, it runs like this:
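GI50 values come from four-parameter curve fits of luminescence data normalized to a zero baseline. Compound, in medium with 0.5% DMSO, was added one day after plating and left for 72 h before CellTiter-Glo 2.0 addition.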

Assay [2] relates to T-Rex 293 cell line SC3 cells lacking increased expression of androgen receptor protein. Nature of the assay: Cellular growth inhibition, T-Rex 293 SC3 cells without doxycycline, CellTiter-Glo. It is filed as cell-based. Conditions: T-Rex 293 SC3 cells not exposed to doxycycline, CellTiter-Glo 2.0. In short, it runs like this:
(§1)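 GI50 came from a four-parameter fit of CellTiter-Glo 2.0 luminescence after 72 h compound exposure (0.5% DMSO, 37 °C), dosing 24 h post-seeding. SC3 clone cells (2500/well), transfected with wild-type androgen receptor, grew in charcoal-stripped serum medium lacking phenol red, induced with 10 ng/mL doxycycline or left uninduced.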
(ATP-based viability assays read luminescence as a measure of living cells.)

In assay [3] the test system is T-Rex 293 cell line SC3 cells having increased expression of androgen receptor protein due to exposure to doxycycline. As to the kind of experiment: Cellular growth inhibition, T-Rex 293 SC3 cells with doxycycline (androgen receptor induced), CellTiter-Glo. Conditions: T-Rex 293 SC3 cells with 10 ng/mL doxycycline (increased androgen receptor expression). It is filed as cell-based. In a few lines: as §1

Assay [4] has as its system T47D cells. Nature of the assay: Cellular growth inhibition assay for T47D cells, CellTiter-Glo. It is filed as cell-based, human. Conditions: Homo sapiens, T47D, 72 h, 72 hours treatment, CellTiter-Glo 2.0 cell viability. In short, it runs like this:
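Growth inhibition as GI50, fitted with four parameters to CellTiter-Glo luminescence after 72 h of compound exposure (0.5% DMSO). Cells were T47D, grown in insulin-supplemented (0.2 units/mL) DMEM with 10% FBS and treated one day post-seeding.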

Usually GI50 stands for the concentration that inhibits growth by half. Turning to `Cc1sc2c(c1C)C(c1ccc(N3CC(CC4CN(c5ccc(C(=O)N[C@H]6C(C)(C)[C@H](Oc7ccc(C#N)c(Cl)c7)C6(C)C)nc5)C4)C3)cc1)=N[C@@H](Cc1ncco1)c1nnc(C)n1-2` [Compound I-621], the GI50 is below 500 nM in assay [1] (Homo sapiens, VCaP, 72 h); below 500 nM in assay [2] (72 h); below 500 nM in assay [3] (72 h); below 500 nM in assay [4].

With `Cc1sc2c(c1C)C(c1ccc(CCCOC3CCN(c4ncc(C(=O)N[C@H]5C(C)(C)[C@H](Oc6ccc(C#N)c(Cl)c6)C5(C)C)cn4)CC3)cc1)=N[C@H](Cc1cnccn1)c1nnc(C)n1-2` [Compound I-278], the GI50 was below 500 nM in assay [1] (Homo sapiens, VCaP, 72 h); below 500 nM in assay [2] (72 h); below 500 nM in assay [3] (72 h); below 500 nM in assay [4].

Consider `Cc1sc2c(c1C)C(c1ccc(-c3cc(C4CCN(c5ncc(C(=O)N[C@H]6C(C)(C)[C@H](Oc7ccc(C#N)c(Cl)c7)C6(C)C)cn5)CC4)cs3)cc1)=N[C@@H](Cc1ncco1)c1nnc(C)n1-2` [Compound I-480], for which the GI50 in assay [1] (Homo sapiens, VCaP, 72 h) was below 500 nM; in assay [2] (72 h), above 3000 nM; in assay [3] (72 h), below 500 nM; in assay [4], above 3000 nM.

As for `Cc1sc2c(c1C)C(c1ccc(OC3CC4(CCN(c5ncc(C(=O)N[C@H]6C(C)(C)[C@H](Oc7ccc(C#N)c(Cl)c7)C6(C)C)cn5)CC4)C3)cc1F)=N[C@@H](Cc1ncco1)c1nnc(C)n1-2` [Compound I-457, N-[3-(3-chloro-4-cyano-phenoxy)-2,2,4,4-tetramethyl-cyclobutyl]-2-[2-[3-fluoro-4-[(9S)-4,5,13-trimethyl-9-(oxazol-2-ylmethyl)-3-thia-1,8,11,12-tetrazatricyclo[8.3.0.02,6]trideca-2(6),4,7,10,12-pentaen-7-yl]phenoxy]-7-azaspiro [3.5]nonan-7-yl]pyrimidine-5-carboxamide], the GI50 was below 500 nM in assay [1] (Homo sapiens, VCaP, 72 h); below 500 nM in assay [2] (72 h); below 500 nM in assay [3] (72 h); below 500 nM in assay [4].

Turning to `Cc1sc2c(c1C)C(c1ccc(CCCOC3CCN(c4ncc(C(=O)N[C@H]5C(C)(C)[C@H](Oc6ccc(C#N)c(Cl)c6)C5(C)C)cn4)CC3)cc1)=N[C@H](Cc1cccnc1)c1nnc(C)n1-2` [Compound I-217], the GI50 in assay [1] (Homo sapiens, VCaP, 72 h) was below 500 nM; in assay [2] (72 h), above 3000 nM; in assay [3] (72 h), below 500 nM; in assay [4] it was below 500 nM.

`Cc1sc2c(c1C)C(c1ccc(CC(=O)N3CCC(c4ncc(C(=O)N[C@H]5C(C)(C)[C@H](Oc6ccc(C#N)c(Cl)c6)C5(C)C)cn4)CC3)cc1)=N[C@H](Cc1ncco1)c1nnc(C)n1-2` [Compound I-370]: the GI50 in assay [1] (Homo sapiens, VCaP, 72 h) is below 500 nM; in assay [2] (72 h), above 3000 nM; in assay [3] (72 h) it was below 500 nM; in assay [4], 500 to 1500 nM.

As to `Cc1sc2c(c1C)C(c1ccc(C(F)(F)N3CC4(CCN(c5ncc(C(=O)N[C@H]6C(C)(C)[C@H](Oc7ccc(C#N)c(Cl)c7)C6(C)C)cn5)CC4)C3)cc1)=N[C@@H](Cc1ncco1)c1nnc(C)n1-2` [Compound I-504], the 50% growth inhibitory concentration (GI50) in assay [1] (Homo sapiens, VCaP, 72 h) was below 500 nM; in assay [2] (72 h), above 3000 nM; in assay [3] (72 h), below 500 nM; in assay [4], below 500 nM.

On to `Cc1sc2c(c1C)C(c1ccc(CCN3CC4(CCCN(c5ncc(C(=O)N[C@H]6C(C)(C)[C@H](Oc7ccc(C#N)c(Cl)c7)C6(C)C)cn5)C4)C3)cc1)=N[C@@H](Cc1ncco1)c1nnc(C)n1-2` [Compound I-272], for which the GI50 is below 500 nM in assay [1] (Homo sapiens, VCaP, 72 h); 500 to 1500 nM in assay [2] (72 h); below 500 nM in assay [3] (72 h); below 500 nM in assay [4].

On to `Cc1sc2c(c1C)C(c1ccc(C3(N(C)CC4CCN(c5ncc(C(=O)N[C@H]6C(C)(C)[C@H](Oc7ccc(C#N)c(Cl)c7)C6(C)C)cn5)CC4)COC3)cc1)=N[C@@H](C)c1nnc(C)n1-2` [Compound I-377], for which the GI50 in assay [1] (Homo sapiens, VCaP, 72 h) was above 3000 nM; in assay [2] (72 h), above 3000 nM; in assay [3] (72 h) it was above 3000 nM; in assay [4], above 3000 nM.

`CNc1ccc2c(n1)C(c1ccc(OC3CC4(CCN(c5ncc(C(=O)N[C@H]6C(C)(C)[C@H](Oc7ccc(C#N)c(Cl)c7)C6(C)C)cn5)CC4)C3)cc1)=NCc1onc(C)c1-2` [Compound I-232]: the GI50 is below 500 nM in assay [1] (Homo sapiens, VCaP, 72 h); above 3000 nM in assay [2] (72 h); below 500 nM in assay [3] (72 h); below 500 nM in assay [4].

Regarding `Cc1sc2c(c1C)C(c1ccc(NCCC3CCCN(c4ncc(C(=O)N[C@H]5C(C)(C)[C@H](Oc6ccc(C#N)c(Cl)c6)C5(C)C)cn4)C3)cc1)=N[C@@H](Cc1ncco1)c1nnc(C)n1-2` (some centres unmarked) [Compound I-652], the GI50 is below 500 nM in assay [1] (Homo sapiens, VCaP, 72 h); below 500 nM in assay [2] (72 h); below 500 nM in assay [3] (72 h); below 500 nM in assay [4].

In the case of `COC[C@@H]1N=C(c2ccc(OC3CC4(CCCN(c5ncc(C(=O)N[C@H]6C(C)(C)[C@@H](Oc7ccc(C#N)c(Cl)c7)C6(C)C)cn5)C4)C3)cc2)c2c(sc(C)c2C)-n2c(C)nnc21` [Compound I-567], the GI50 in assay [1] (Homo sapiens, VCaP, 72 h) is below 500 nM; in assay [2] (72 h), above 3000 nM; in assay [3] (72 h) it was below 500 nM; in assay [4], above 3000 nM.

As to `Cc1sc2c(c1C)C(c1ccc(CCC3CCN(c4ncc(C(=O)N[C@H]5C(C)(C)[C@H](Oc6ccc(C#N)c(Cl)c6)C5(C)C)cn4)CC3)cc1)=N[C@@H](Cc1ncco1)c1nnc(C)n1-2` [Compound I-132], the GI50 in assay [1] (Homo sapiens, VCaP, 72 h) is below 500 nM; in assay [2] (72 h) it was above 3000 nM; in assay [3] (72 h), below 500 nM; in assay [4] it was below 500 nM.

Turning to `Cc1sc2c(c1C)C(c1ccc(-c3csnc3OC3CCN(c4ncc(C(=O)N[C@H]5C(C)(C)[C@H](Oc6ccc(C#N)c(Cl)c6)C5(C)C)cn4)CC3)cc1)=N[C@@H](Cc1ncco1)c1nnc(C)n1-2` [Compound I-431], the GI50 in assay [1] (Homo sapiens, VCaP, 72 h) is below 500 nM; in assay [2] (72 h), above 3000 nM; in assay [3] (72 h) it was below 500 nM; in assay [4], above 3000 nM.

Consider `Cc1sc2c(c1C)C(c1ccc(C(=O)N3CC[C@@]4(CCCN(c5ncc(C(=O)N[C@H]6C(C)(C)[C@H](Oc7ccc(C#N)c(Cl)c7)C6(C)C)cn5)C4)C3)cc1)=N[C@H](Cc1ncco1)c1nnc(C)n1-2` [Compound I-257], for which the GI50 in assay [1] (Homo sapiens, VCaP, 72 h) is above 3000 nM; in assay [2] (72 h), above 3000 nM; in assay [3] (72 h) it was below 500 nM; in assay [4], 1500 to 3000 nM.

`Cc1sc2c(c1C)C(c1ccc(CN3CCN(C(=O)c4ncc(C(=O)N[C@H]5C(C)(C)[C@H](Oc6ccc(C#N)c(Cl)c6)C5(C)C)cn4)CC3)cc1)=N[C@@H](Cc1ncco1)c1nnc(C)n1-2` [Compound I-290]: the concentration for 50% growth inhibition (GI50) in assay [1] (Homo sapiens, VCaP, 72 h) was below 500 nM; in assay [2] (72 h), 500 to 1500 nM; in assay [3] (72 h), below 500 nM; in assay [4] it was 1500 to 3000 nM.

For the compound `COCC[C@@H]1N=C(c2ccc(N3CC(CC4CCN(c5cnc(C(=O)N[C@H]6C(C)(C)[C@H](Oc7ccc(C#N)c(Cl)c7)C6(C)C)cn5)CC4)C3)cc2)c2c(sc(C)c2C)-n2c(C)nnc21` [Compound I-609], the concentration for 50% growth inhibition (GI50) in assay [1] (Homo sapiens, VCaP, 72 h) was 500 to 1500 nM; in assay [2] (72 h), below 500 nM; in assay [3] (72 h) it was below 500 nM; in assay [4], below 500 nM.

As to `Cc1sc2c(c1C)C(c1ccc(OC3CC4(CCN(c5ncc(C(=O)N[C@H]6C(C)(C)[C@H](Oc7ccc(C#N)c(Cl)c7)C6(C)C)cn5)CC4)C3)cc1)=NC1(CC1)c1nnc(C)n1-2` [Compound I-461], the GI50 was below 500 nM in assay [1] (Homo sapiens, VCaP, 72 h); 500 to 1500 nM in assay [2] (72 h); below 500 nM in assay [3] (72 h); below 500 nM in assay [4].

Regarding `Cc1sc2c(c1C)C(c1ccc(C(C)(C)N3CC4(CCN(c5ncc(C(=O)N[C@H]6C(C)(C)[C@H](Oc7ccc(C#N)c(Cl)c7)C6(C)C)cn5)CC4)C3)cc1)=N[C@@H](Cc1ncco1)c1nnc(C)n1-2` [Compound I-396], the GI50 in assay [1], in assay [2] (72 hours), in assay [3] (72 hours) and in assay [4] was above 3000 nM each time.

With `Cc1sc2c(c1C)C(c1ccc(-c3nnc(OC4CCN(c5ncc(C(=O)N[C@H]6C(C)(C)[C@H](Oc7ccc(C#N)c(Cl)c7)C6(C)C)cn5)CC4)s3)cc1)=N[C@@H](Cc1ncco1)c1nnc(C)n1-2` [Compound I-407], the GI50 was below 500 nM in assay [1] (Homo sapiens, VCaP, 72 h); below 500 nM in assay [2] (72 h); below 500 nM in assay [3] (72 h); below 500 nM in assay [4].

In the case of `Cc1sc2c(c1C)C(c1ccc(C(=O)N(C)CCCc3ncc(C(=O)N[C@H]4C(C)(C)[C@H](Oc5ccc(C#N)c(Cl)c5)C4(C)C)cn3)cc1)=N[C@@H](Cc1ncco1)c1nnc(C)n1-2` [Compound I-342], the GI50 in assay [1] (Homo sapiens, VCaP, 72 h) is above 3000 nM; in assay [2] (72 h), above 3000 nM; in assay [3] (72 h), above 3000 nM; in assay [4], above 3000 nM.

In the case of `COCC[C@@H]1N=C(c2ccc(CC3CC4(CCN(c5cnc(C(=O)N[C@H]6C(C)(C)[C@H](Oc7ccc(C#N)c(Cl)c7)C6(C)C)cn5)CC4)C3)cc2)c2c(sc(C)c2C)-n2c(C)nnc21` [Compound I-586], the GI50 in assay [1] (Homo sapiens, VCaP, 72 h) was below 500 nM; in assay [2] (72 h), above 3000 nM; in assay [3] (72 h), below 500 nM; in assay [4], below 500 nM.

For `Cc1sc2c(c1C)C(c1ccc(CCC[C@H]3CCCN(c4ncc(C(=O)N[C@H]5C(C)(C)[C@H](Oc6ccc(C#N)c(Cl)c6)C5(C)C)cn4)C3)cc1)=N[C@@H](C)c1nnc(C)n1-2` [Compound I-366], the GI50 in assay [1] (Homo sapiens, VCaP, 72 h) was below 500 nM; in assay [2] (72 h), above 3000 nM; in assay [3] (72 h) it was below 500 nM; in assay [4], above 3000 nM.
